Laboratory results reported in ChEMBL document CHEMBL5365437, “Cannabinoformins: Designing Biguanide-Embedded, Orally Available, Peripherally Selective Cannabinoid-1 Receptor Antagonists for Metabolic Syndrome Disorders” (J Med Chem, 2023).

What was measured:
Cannabinoid receptor 1 [1] = target: T1, Cannabinoid receptor 1 (Mus musculus, UniProt P47746); assay: Displacement of [3H][…] from CB1 receptor in mouse brain plasma membrane by radioligand displacement analysis; format: cell membranes
[2] = target: AMP-activated protein kinase (AMPK) alpha-1/beta-1/gamma-1 (Homo sapiens) (UniProt P54619+Q9Y478+Q13131); assay: Activation of recombinant AMPK alpha1/beta1/gamma1 (unknown origin) at 1 uM relative to control; format: protein-complex assay; settings: filed as activator
Sequence of AMP-activated protein kinase (AMPK) alpha-1/beta-1/gamma-1 (Homo sapiens) (P54619 whole entry): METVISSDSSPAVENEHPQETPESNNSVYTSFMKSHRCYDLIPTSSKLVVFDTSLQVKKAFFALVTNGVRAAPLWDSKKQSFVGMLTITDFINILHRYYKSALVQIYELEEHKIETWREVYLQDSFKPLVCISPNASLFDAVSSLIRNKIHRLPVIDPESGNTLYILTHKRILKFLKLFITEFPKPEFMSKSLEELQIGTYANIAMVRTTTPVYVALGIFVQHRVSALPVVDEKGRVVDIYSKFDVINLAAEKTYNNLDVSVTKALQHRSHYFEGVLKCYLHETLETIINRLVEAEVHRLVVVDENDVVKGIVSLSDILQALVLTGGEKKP
Sequence of AMP-activated protein kinase (AMPK) alpha-1/beta-1/gamma-1 (Homo sapiens) (Q13131 whole entry partner): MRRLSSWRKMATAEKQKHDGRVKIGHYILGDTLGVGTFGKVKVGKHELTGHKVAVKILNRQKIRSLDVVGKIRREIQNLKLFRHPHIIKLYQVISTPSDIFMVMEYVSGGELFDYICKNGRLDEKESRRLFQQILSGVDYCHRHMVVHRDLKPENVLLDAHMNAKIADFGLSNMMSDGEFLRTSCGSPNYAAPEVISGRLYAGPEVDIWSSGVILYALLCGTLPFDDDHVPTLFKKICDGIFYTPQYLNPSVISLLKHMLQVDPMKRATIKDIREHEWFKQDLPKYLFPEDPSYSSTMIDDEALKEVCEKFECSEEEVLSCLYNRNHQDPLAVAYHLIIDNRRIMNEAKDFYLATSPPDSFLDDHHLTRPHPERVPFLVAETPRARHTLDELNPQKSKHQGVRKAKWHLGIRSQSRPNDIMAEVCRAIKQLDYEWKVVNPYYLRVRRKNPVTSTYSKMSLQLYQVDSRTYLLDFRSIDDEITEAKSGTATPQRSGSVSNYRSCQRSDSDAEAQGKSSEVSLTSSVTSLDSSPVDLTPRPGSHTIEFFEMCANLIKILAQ
Sequence of AMP-activated protein kinase (AMPK) alpha-1/beta-1/gamma-1 (Homo sapiens) (Q9Y478 2-270 partner limits assumed): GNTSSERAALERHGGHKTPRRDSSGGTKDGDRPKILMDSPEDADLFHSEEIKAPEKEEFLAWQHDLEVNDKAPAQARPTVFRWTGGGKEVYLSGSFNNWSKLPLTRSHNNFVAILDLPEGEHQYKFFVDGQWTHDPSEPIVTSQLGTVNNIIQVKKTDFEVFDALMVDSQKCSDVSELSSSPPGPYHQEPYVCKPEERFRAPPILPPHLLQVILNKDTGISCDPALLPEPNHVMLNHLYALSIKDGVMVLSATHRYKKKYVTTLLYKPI

Cannabinoid receptor 1 [3] = target: T1, Cannabinoid receptor 1; assay: Antagonist activity at CB1 receptor in mouse brain membrane assessed as inhibition of […]-induced GTPgammaS binding by [35S]GTPgammaS binding analysis; format: functional, cell membranes

T1 sequence (P47746 whole entry): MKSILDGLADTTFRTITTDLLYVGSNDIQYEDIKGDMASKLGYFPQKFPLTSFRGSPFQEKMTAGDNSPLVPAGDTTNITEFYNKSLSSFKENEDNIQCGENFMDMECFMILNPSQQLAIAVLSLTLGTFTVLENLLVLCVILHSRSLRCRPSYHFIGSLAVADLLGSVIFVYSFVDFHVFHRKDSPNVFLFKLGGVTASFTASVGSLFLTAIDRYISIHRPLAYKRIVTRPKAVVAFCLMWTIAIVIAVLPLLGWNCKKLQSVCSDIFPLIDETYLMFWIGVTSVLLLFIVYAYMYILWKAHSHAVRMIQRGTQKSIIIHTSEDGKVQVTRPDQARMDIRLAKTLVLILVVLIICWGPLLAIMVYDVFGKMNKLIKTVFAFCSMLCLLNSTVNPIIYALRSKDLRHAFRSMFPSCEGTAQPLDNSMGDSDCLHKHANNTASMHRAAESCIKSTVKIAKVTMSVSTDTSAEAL

SMILES | Ki (Cannabinoid receptor 1 [1]) | Activity [2] | IC50 (Cannabinoid receptor 1 [3])
N/C(=N\C(=N\S(=O)(=O)c1ccc(Cl)cc1)N1CC(c2ccccc2)C(c2ccc(Cl)cc2)=N1)NC(=O)c1ccccc1 (centres undefined) | 0.8 nM | 100% | 25 nM
N/C(=N\C(=N\S(=O)(=O)c1ccc(OC(F)(F)F)cc1)N1CC(c2ccccc2)C(c2ccc(Cl)cc2)=N1)NC(=O)c1ccccc1 (centres undefined) | 13 nM | 104% | 86 nM
N/C(=N\C(=N\S(=O)(=O)c1ccc2ccccc2c1)N1CC(c2ccccc2)C(c2ccc(Cl)cc2)=N1)NC(=O)c1ccccc1 (centres undefined) | 8.1 nM | 90% | 66 nM
CCC(=O)N/C(N)=N/C(=N/S(=O)(=O)c1ccc(C(F)(F)F)cc1)N1CC(c2ccccc2)C(c2ccc(Cl)cc2)=N1 (centres undefined) | 3.3 nM | 96% | 5.5 nM
Cc1ccc(S(=O)(=O)/N=C(/N=C(\N)NC(=O)c2ccccc2)N2CC(c3ccccc3)C(c3ccc(Cl)cc3)=N2)cc1 (centres undefined) | 25 nM | 102% | 59 nM
CC(=O)N/C(N)=N/C(=N/S(=O)(=O)c1ccc(Cl)cc1)N1CC(c2ccccc2)C(c2ccc(Cl)cc2)=N1 (centres undefined) | 2.9 nM | 142% | 3.1 nM
N/C(=N\C(=N\S(=O)(=O)c1ccc(C(F)(F)F)cc1)N1CC(c2ccccc2)C(c2ccc(Cl)cc2)=N1)NC(=O)c1ccccc1 (centres undefined) | 3 nM | 101% | 6.1 nM
CC(=O)N/C(N)=N/C(=N/S(=O)(=O)N1CCOCC1)N1CC(c2ccccc2)C(c2ccc(Cl)cc2)=N1 (centres undefined) | 2.3 nM | 162% | 2 nM
CC(=O)N/C(N)=N/C(=N/S(=O)(=O)c1ccc(OC(F)(F)F)cc1)N1CC(c2ccccc2)C(c2ccc(Cl)cc2)=N1 (centres undefined) | – | 125% | 3.2 nM
NC(N)=N/C(=N/S(=O)(=O)c1ccc(Cl)cc1)N1CC(c2ccccc2)C(c2ccc(Cl)cc2)=N1 (centres undefined) | 415 nM | – | –
CC(=O)N/C(N)=N/C(=N/S(=O)(=O)c1ccc(I)cc1)N1CC(c2ccccc2)C(c2ccc(Cl)cc2)=N1 (centres undefined) | 3.2 nM | 121% | 2.8 nM
COc1ccc(S(=O)(=O)/N=C(/N=C(\N)NC(=O)c2ccccc2)N2CC(c3ccccc3)C(c3ccc(Cl)cc3)=N2)cc1 (centres undefined) | 8.5 nM | 98% | 68 nM
CC(=O)N/C(N)=N/C(=N/S(=O)(=O)c1ccc(Br)cc1)N1CC(c2ccccc2)C(c2ccc(Cl)cc2)=N1 (centres undefined) | 0.6 nM | 94% | 4.9 nM
N/C(=N\C(=N\S(=O)(=O)c1ccc(Cl)cc1)N1CC(c2ccccc2)C(c2ccc(Cl)cc2)=N1)NC12C[C@H]3C[C@@H](C1)C[C@@H](C2)C3 (some centres undefined) | > 1000 nM | – | –
CC(=O)N/C(N)=N/C(=N/S(=O)(=O)c1ccc(C(C)(C)C)cc1)N1CC(c2ccccc2)C(c2ccc(Cl)cc2)=N1 (centres undefined) | – | 118% | 1.4 nM
CCN(CC)S(=O)(=O)/N=C(/N=C(\N)NC(C)=O)N1CC(c2ccccc2)C(c2ccc(Cl)cc2)=N1 (centres undefined) | 1.3 nM | 152% | 2.1 nM
N/C(=N\C(=N\S(=O)(=O)c1ccc(I)cc1)N1CC(c2ccccc2)C(c2ccc(Cl)cc2)=N1)NC(=O)c1ccccc1 (centres undefined) | 5.5 nM | 96% | 14 nM
CCC(=O)N/C(N)=N/C(=N/S(=O)(=O)c1ccc(Cl)cc1)N1CC(c2ccccc2)C(c2ccc(Cl)cc2)=N1 (centres undefined) | 2.8 nM | 91% | 6 nM
CN=C(NS(=O)(=O)c1ccc(Cl)cc1)N1C[C@H](c2ccccc2)C(c2ccc(Cl)cc2)=N1 [IBIPINABANT] | 8.1 nM | – | –
CC(=O)N/C(N)=N/C(=N/S(=O)(=O)c1ccc(C(C)C)cc1)N1CC(c2ccccc2)C(c2ccc(Cl)cc2)=N1 (centres undefined) | 3.7 nM | 119% | 1.7 nM
CC(=O)N/C(N)=N/C(=N/S(=O)(=O)c1ccc2ccccc2c1)N1C[C@@H](c2ccccc2)C(c2ccc(Cl)cc2)=N1 | 78 nM | – | –
N/C(=N\C(=N\S(=O)(=O)c1ccc(Cl)cc1)N1CC(c2ccccc2)C(c2ccc(Cl)cc2)=N1)NCC12C[C@H]3C[C@@H](C1)C[C@@H](C2)C3 (some centres undefined) | > 1000 nM | – | –
